#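 96-well plates; 48 h exposure; 5 concentrations. Endpoints by linear interpolation between flanking doses. Not reached: highest tested concentration assigned. GI50: concentration for 50% inhibition of growth. TGI: total growth inhibition.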
# Assays:
# Assay in all cases: DTP human tumour cell line panel, 48 h
# [1] = test system: KM12 colon
# [2] = test system: SF-268 CNS
# [3] = test system: SK-MEL-28 melanoma
# [4] = test system: SK-MEL-5 melanoma
# [5] = test system: TK-10 renal
# [6] = test system: SN12C renal
# [7] = test system: COLO 205 colon
# [8] = test system: NCI-H23 lung
# [9] = test system: 786-0 renal
# [10] = test system: HOP-62 NSCLC
# [11] = test system: MDA-MB-231 breast
# [12] = test system: MCF7 breast
# [13] = test system: MALME-3M melanoma
# [14] = test system: MOLT-4 leukemia
# [15] = test system: IGROV1 ovarian
# [16] = test system: SW-620 colon
# [17] = test system: MDA-N
# [18] = test system: A549 NSCLC
# [19] = test system: RXF 393 renal
# [20] = test system: M14 melanoma
# [21] = test system: SK-OV-3 ovarian
# [22] = test system: RPMI-8226 leukemia
# [23] = test system: DU-145 prostate
# [24] = test system: UACC-257 melanoma
# [25] = test system: OVCAR-8 ovarian
# [26] = test system: SF-295 CNS
# [27] = test system: SR leukemia
# [28] = test system: K-562 leukemia
# [29] = test system: T-47D breast
# [30] = test system: HCC-2998 colon
# [31] = test system: PC-3 prostate
# [32] = test system: CAKI-1 renal
# [33] = test system: CCRF-CEM leukemia
# [34] = test system: SNB-75 CNS
# [35] = test system: UACC-62 melanoma
# [36] = test system: HCT-15 colon
# [37] = test system: HL-60(TB) leukemia
# [38] = test system: HT29 colon
# [39] = test system: EKVX NSCLC
# [40] = test system: UO-31 renal
# [41] = test system: NCI-H226 lung
# [42] = test system: SNB-19 CNS
# [43] = test system: HCT-116 colon
# [44] = test system: SF-539 CNS
# [45] = test system: BT-549 breast
# [46] = test system: HOP-92 NSCLC
# [47] = test system: U251 CNS
# [48] = test system: SK-MEL-2 melanoma
# [49] = test system: MDA-MB-435
# [50] = test system: OVCAR-4 ovarian
# [51] = test system: OVCAR-3 ovarian
# [52] = test system: ACHN renal
# [53] = test system: NCI-H522 lung
# [54] = test system: HS 578T breast
# [55] = test system: LOX IMVI melanoma
# [56] = test system: NCI-H460 lung
# [57] = test system: NCI/ADR-RES ovarian
# [58] = test system: OVCAR-5 ovarian
# [59] = test system: A498 renal
smiles,measurement,setting,value
COc1ccc(C(=O)/C=C/c2ccc(OCC(=O)N3CCN(c4ccccc4)CC3)cc2)cc1OC,TGI,[1],> 10000 nM
same,TGI,[2],> 10000 nM
same,TGI,[3],> 10000 nM
same,TGI,[4],> 10000 nM
same,TGI,[5],> 10000 nM
same,TGI,[6],> 10000 nM
same,TGI,[7],> 10000 nM
same,TGI,[8],5550 nM
same,TGI,[9],> 10000 nM
same,TGI,[10],> 10000 nM
same,TGI,[11],> 10000 nM
same,TGI,[12],> 10000 nM
same,TGI,[13],> 10000 nM
same,TGI,[14],7060 nM
same,TGI,[15],> 10000 nM
same,TGI,[16],> 10000 nM
same,TGI,[17],> 10000 nM
same,TGI,[18],> 10000 nM
same,TGI,[19],3860 nM
same,TGI,[20],> 10000 nM
same,TGI,[21],> 10000 nM
same,TGI,[22],> 10000 nM
same,TGI,[23],> 10000 nM
same,TGI,[24],> 10000 nM
same,TGI,[25],> 10000 nM
same,TGI,[26],> 10000 nM
same,TGI,[27],6470 nM
same,TGI,[28],> 10000 nM
same,TGI,[29],> 10000 nM
same,TGI,[30],> 10000 nM
same,TGI,[31],> 10000 nM
same,TGI,[32],> 10000 nM
same,TGI,[33],7210 nM
same,TGI,[34],8750 nM
same,TGI,[35],> 10000 nM
same,TGI,[36],> 10000 nM
same,TGI,[37],> 10000 nM
same,TGI,[38],> 10000 nM
same,TGI,[39],> 10000 nM
CN1CCN(C(=O)OCc2nc3c(N4CCOCC4)nc(-c4ccccc4)nc3n2C)CC1,GI50,[1],1550 nM
same,TGI,[1],3530 nM
same,GI50,[40],377 nM
same,TGI,[40],1800 nM
same,GI50,[41],1610 nM
same,TGI,[41],3780 nM
same,GI50,[2],1410 nM
same,TGI,[2],2850 nM
same,GI50,[3],1480 nM
same,TGI,[3],2810 nM
same,GI50,[4],1500 nM
same,TGI,[4],2850 nM
same,GI50,[5],1670 nM
same,TGI,[5],3120 nM
same,GI50,[6],814 nM
same,TGI,[6],2120 nM
same,GI50,[42],1450 nM
same,TGI,[42],2780 nM
same,GI50,[43],207 nM
same,TGI,[43],648 nM
same,GI50,[44],1330 nM
same,TGI,[44],2600 nM
same,GI50,[7],1360 nM
same,TGI,[7],3750 nM
same,GI50,[45],1000 nM
same,TGI,[45],2250 nM
same,GI50,[8],1540 nM
same,TGI,[8],3210 nM
same,GI50,[9],993 nM
same,TGI,[9],2360 nM
same,GI50,[46],765 nM
same,TGI,[46],2240 nM
same,GI50,[10],1530 nM
same,TGI,[10],3790 nM
same,GI50,[11],1090 nM
same,TGI,[11],2370 nM
same,GI50,[47],1520 nM
same,TGI,[47],3170 nM
same,GI50,[48],1850 nM
same,TGI,[48],3690 nM
same,GI50,[12],389 nM
same,TGI,[12],2110 nM
same,GI50,[13],1440 nM
same,TGI,[13],2800 nM
same,GI50,[14],526 nM
same,TGI,[14],3120 nM
same,GI50,[15],632 nM
same,TGI,[15],2030 nM
same,GI50,[49],1060 nM
same,TGI,[49],2390 nM
same,GI50,[16],329 nM
same,TGI,[16],1190 nM
same,GI50,[50],1200 nM
same,TGI,[50],2650 nM
same,GI50,[18],1680 nM
same,TGI,[18],4130 nM
same,GI50,[19],687 nM
same,TGI,[19],1980 nM
same,GI50,[51],295 nM
same,TGI,[51],1160 nM
same,GI50,[20],1070 nM
same,TGI,[20],2440 nM
same,GI50,[52],544 nM
same,TGI,[52],1770 nM
same,GI50,[21],2970 nM
same,TGI,[21],9130 nM
same,GI50,[22],335 nM
same,TGI,[22],1870 nM
same,GI50,[23],1190 nM
same,TGI,[23],2480 nM
same,GI50,[24],1470 nM
same,TGI,[24],3170 nM
same,GI50,[25],1170 nM
same,TGI,[25],3040 nM
same,GI50,[26],1580 nM
same,TGI,[26],2960 nM
same,GI50,[27],350 nM
same,TGI,[27],> 100000 nM
same,GI50,[28],512 nM
same,TGI,[28],7410 nM
same,GI50,[29],1530 nM
same,TGI,[29],4510 nM
same,GI50,[53],596 nM
same,TGI,[53],2400 nM
same,GI50,[30],1580 nM
same,TGI,[30],3210 nM
same,GI50,[54],1230 nM
same,TGI,[54],3930 nM
same,GI50,[55],176 nM
same,TGI,[55],443 nM
same,GI50,[56],1480 nM
same,TGI,[56],3060 nM
same,GI50,[31],1090 nM
same,TGI,[31],2490 nM
same,GI50,[32],471 nM
same,TGI,[32],1830 nM
same,GI50,[33],321 nM
same,TGI,[33],1570 nM
same,GI50,[34],1040 nM
same,TGI,[34],2270 nM
same,GI50,[35],1250 nM
same,TGI,[35],2520 nM
same,GI50,[57],1820 nM
same,TGI,[57],6030 nM
same,GI50,[36],317 nM
same,TGI,[36],1260 nM
same,GI50,[37],753 nM
same,TGI,[37],2660 nM
same,GI50,[38],512 nM
same,TGI,[38],2240 nM
same,GI50,[58],1460 nM
same,TGI,[58],3000 nM
same,GI50,[39],1390 nM
same,TGI,[39],2940 nM
same,GI50,[59],1530 nM
same,TGI,[59],2910 nM
